Results as given in patent US11464749B2, “Bismuth-thiol compositions and methods of use” (Microbion Corporation, priority 2018, dated 2022).

Tests used:
Klebsiella pneumoniae = assay: Broth microdilution MIC (Example 12)
P. aeruginosa = assay: FIC checkerboard assay; format: cell-based; conditions: during FIC testing
Pseudomonas aeruginosa = assay: Broth microdilution MIC (Example 12)
Escherichia coli = assay: Broth microdilution MIC (Example 12)
B. cenocepacia = assay: FIC checkerboard assay; format: cell-based; conditions: during FIC testing
Acinetobacter baumannii = assay: Broth microdilution MIC (Example 12)
B. cepacia = assay: FIC checkerboard assay; format: cell-based; conditions: during FIC testing
[1] = tested on: Pseudomonas aeruginosa strain PA01; assay: Bacterial killing curves with and without CF patient sputum

C[C@@H](O)[C@H]1C(=O)N2C(C(=O)O)=C(S[C@@H]3CN[C@H](C(=O)N(C)C)C3)[C@H](C)[C@H]12 [MEM]
4 µg/mL: MIC (Klebsiella pneumoniae; K. pneumoniae CDC 126, ESBL/KPC) | MIC (B. cenocepacia; B. cenocepacia isolate 0548 (CIP-R)) | MIC (Acinetobacter baumannii; A. baumannii CDC 312, OXA) | MIC (B. cepacia; B. cepacia isolate 0546) | MIC (B. cepacia; B. cepacia isolate 1793)
16 µg/mL: MIC (P. aeruginosa; P. aeruginosa isolate 6322 (MEM-R, TOB-R, AMK-R, CIP-R, AZT-R)) | MIC (P. aeruginosa; P. aeruginosa isolate 7745 (MEM-R, CIP-R, AZT-R))
2 µg/mL: MIC (Escherichia coli; E. coli CDC 114, ESBL/KPC) | MIC (Escherichia coli; E. coli MMX 5745, KPC) | MIC (B. cenocepacia; B. cenocepacia isolate 0813 (CIP-I))
≤0.008 µg/mL: MIC (Escherichia coli; E. coli ATCC 35218, ESBL) | MIC (Escherichia coli; E. coli MMX 5756, ESBL) | MIC (Escherichia coli; E. coli MMX 5758, ESBL)
32 µg/mL: MIC (P. aeruginosa; P. aeruginosa isolate 8798 (MEM-R, TOB-R, AMK-R, CIP-R, AZT-R, COL-R))
1 µg/mL: MIC (Klebsiella pneumoniae; K. pneumoniae CDC 135, ESBL/VIM) | MIC (P. aeruginosa; P. aeruginosa isolate 103 (ATCC 25922), each agent tested alone, one replicate, for QC) | MIC (P. aeruginosa; P. aeruginosa isolate 9108 (CIP-R, AZT-I)) | MIC (Escherichia coli; E. coli CDC 451, KPC)
0.06 µg/mL: MIC (Escherichia coli; E. coli CDC 118, ESBL/NDM)
8 µg/mL: MIC (Klebsiella pneumoniae; K. pneumoniae ATCC BAA-1705, ESBL/KPC) | MIC (Klebsiella pneumoniae; K. pneumoniae CDC 129, ESBL/KPC) | MIC (P. aeruginosa; P. aeruginosa isolate 6977 (MEM-I, TOB-R, CIP-R, AZT-I)) | MIC (Escherichia coli; E. coli CDC 503, ESBL/NDM) | MIC (Acinetobacter baumannii; A. baumannii CDC 307, OXA) | MIC (Acinetobacter baumannii; A. baumannii CDC 308, ESBL/OXA)
>8 µg/mL: MIC (Klebsiella pneumoniae; K. pneumoniae CDC 112, KPC) | MIC (Klebsiella pneumoniae; K. pneumoniae CDC 113, ESBL/KPC) | MIC (Klebsiella pneumoniae; K. pneumoniae CDC 115, ESBL/KPC) | MIC (Klebsiella pneumoniae; K. pneumoniae CDC 120, ESBL/KPC) | MIC (Klebsiella pneumoniae; K. pneumoniae CDC 138, ESBL/NDM) | MIC (Klebsiella pneumoniae; K. pneumoniae CDC 158, ESBL/NDM/OXA) | MIC (Pseudomonas aeruginosa; P. aeruginosa CDC 230, VIM/OXA) | MIC (Pseudomonas aeruginosa; P. aeruginosa CDC 231, KPC/OXA) | MIC (Pseudomonas aeruginosa; P. aeruginosa CDC 241, IMP/OXA) | MIC (Pseudomonas aeruginosa; P. aeruginosa CDC 246, NDM/OXA) | MIC (Pseudomonas aeruginosa; P. aeruginosa CDC 250, NDM/OXA) | MIC (Pseudomonas aeruginosa; P. aeruginosa CDC 356, KPC) | MIC (Pseudomonas aeruginosa; P. aeruginosa CDC 439, IMP) | MIC (Pseudomonas aeruginosa; P. aeruginosa CDC 444, VIM) | MIC (Pseudomonas aeruginosa; P. aeruginosa CDC 457, VIM) | MIC (Pseudomonas aeruginosa; P. aeruginosa CDC 516, KPC/AmpC) | MIC (Pseudomonas aeruginosa; P. aeruginosa CDC 518, KPC/AmpC) | MIC (Escherichia coli; E. coli ATCC BAA-2471, NDM) | MIC (Escherichia coli; E. coli CDC 435, NDM) | MIC (Acinetobacter baumannii; A. baumannii CDC 273, ESBL/OXA) | MIC (Acinetobacter baumannii; A. baumannii CDC 274, ESBL/OXA) | MIC (Acinetobacter baumannii; A. baumannii CDC 275, ESBL/OXA) | MIC (Acinetobacter baumannii; A. baumannii CDC 277, ESBL/OXA) | MIC (Acinetobacter baumannii; A. baumannii CDC 284, ESBL/OXA) | MIC (Acinetobacter baumannii; A. baumannii CDC 311, OXA) | MIC (Acinetobacter baumannii; A. baumannii CDC 313, ESBL/OXA) | MIC (Acinetobacter baumannii; A. baumannii NCTC 13304, OXA)
0.015 µg/mL: MIC (Klebsiella pneumoniae; K. pneumoniae MMX 9029, ESBL) | MIC (Escherichia coli; E. coli MMX 5755, ESBL)

C1C[S][Bi]([S]CC[S][Bi]2[S]CC[S]2)[S]1 [BisEDT, bismuth-1,2-ethanedithiol]
not bactericidal: bactericidal activity against PA01 ([1]; 0.1 μg/mL)
partially inhibited: effect of CF patient sputum on bactericidal activity ([1]; 10% CF patient sputum)
